In ChEMBL document CHEMBL3045742, “Antioxidant, cytotoxicity, and QSAR study of 1-adamantylthio derivatives of 3-picoline and phenylpyridines” (Med Chem Res, 2012) one finds IC50 and Activity data, which are given here for 12 compounds.

In brackets after ≈: the same amount, converted by molar mass.

The subject of the first assay is MOLT-3. Nature of the assay: Cytotoxicity against Homo sapiens (human) MOLT3 cells after 3 days by crystal violet staining. The format is functional, cell-based. Conditions: MOLT-3, 72 h; call rule not given here.
`Cc1cccnc1SC12CC3CC(CC(C3)C1)C2`: the half-inhibitory concentration (IC50) (in general, the concentration that inhibits the measured activity by half) stood at 33.3 µg/mL (≈ 128 µM).

As for `c1ccc(-c2ccnc(SC34CC5CC(CC(C5)C3)C4)c2)cc1`, the IC50 was found to be 31.1 µg/mL (≈ 96.7 µM).

In turn, `c1ccc(-c2ccncc2SC23CC4CC(CC(C4)C2)C3)cc1` [3-(1-ADAMANTYLTHIO)-4-PHENYLPYRIDINE] displayed an IC50 of 8.02 µg/mL (≈ 24.9 µM).

With `c1ccc(-c2cc(SC34CC5CC(CC(C5)C3)C4)ccn2)cc1` [4-(1-ADAMANTYLTHIO)-2-PHENYLPYRIDINE], the 50% inhibitory concentration (IC50) was 28.6 µg/mL (≈ 88.8 µM).

In the case of `Cc1cncc(SC23CC4CC(CC(C4)C2)C3)c1` [5-(1-ADAMANTYLTHIO)-3-PICOLINE], the 50% inhibitory concentration (IC50) is 15.8 µg/mL (≈ 61.1 µM).

As to `c1ccc(-c2cccc(SC34CC5CC(CC(C5)C3)C4)n2)cc1` [6-(1-ADAMANTYLTHIO)-2-PHENYLPYRIDINE], the half-inhibitory concentration (IC50) was found to be 32.2 µg/mL (≈ 100 µM).

For `c1ccc(-c2ccc(SC34CC5CC(CC(C5)C3)C4)nc2)cc1` [6-(1-ADAMANTYLTHIO)-3-PHENYLPYRIDINE], the 50% inhibitory concentration (IC50) was determined as 32.5 µg/mL (≈ 101 µM).

Consider `Cc1ccc(SC23CC4CC(CC(C4)C2)C3)nc1` [6-(1-ADAMANTYLTHIO)-3-PICOLINE], for which half-maximal inhibition (IC50) required 27.2 µg/mL (≈ 105 µM).

For the compound `COc1cc([C@@H]2c3cc4c(cc3[C@@H](O[C@@H]3O[C@@H]5CO[C@@H](C)O[C@H]5[C@H](O)[C@H]3O)[C@H]3COC(=O)[C@H]23)OCO4)cc(OC)c1O` [ETOPOSIDE], half-maximal inhibition (IC50) was put at 0.019 µg/mL (≈ 0.0323 µM).

A further assay relates to Radical scavenging activity. Nature of the assay: Antioxidant activity assessed as DPPH radical scavenging activity at 300 ug/mL after 30 min.
Details: not given
The class given is functional. A general note: DPPH is a stable violet radical that fades when it is reduced.
As for `Cc1cccnc1SC12CC3CC(CC(C3)C1)C2`, the Activity is 19.6%.

Consider `c1ccc(-c2ccnc(SC34CC5CC(CC(C5)C3)C4)c2)cc1`, for which the Activity is 6.95%.

In the case of `c1ccc(-c2ccc(SC34CC5CC(CC(C5)C3)C4)cn2)cc1`, the Activity was determined as 8.77%.

Regarding `c1ccc(-c2cccnc2SC23CC4CC(CC(C4)C2)C3)cc1`, the Activity was 11.1%.

For the compound `c1ccc(-c2ccncc2SC23CC4CC(CC(C4)C2)C3)cc1` [3-(1-ADAMANTYLTHIO)-4-PHENYLPYRIDINE], the Activity came to 12.2%.

As to `c1ccc(-c2cc(SC34CC5CC(CC(C5)C3)C4)ccn2)cc1` [4-(1-ADAMANTYLTHIO)-2-PHENYLPYRIDINE], the Activity stood at 30.2%.

For the compound `Cc1cncc(SC23CC4CC(CC(C4)C2)C3)c1` [5-(1-ADAMANTYLTHIO)-3-PICOLINE], the Activity was determined as 7.96%.

For the compound `c1ccc(-c2cccc(SC34CC5CC(CC(C5)C3)C4)n2)cc1` [6-(1-ADAMANTYLTHIO)-2-PHENYLPYRIDINE], the Activity came to 7.37%.

On to `c1ccc(-c2ccc(SC34CC5CC(CC(C5)C3)C4)nc2)cc1` [6-(1-ADAMANTYLTHIO)-3-PHENYLPYRIDINE], for which the Activity was 10.6%.

For `Cc1ccc(SC23CC4CC(CC(C4)C2)C3)nc1` [6-(1-ADAMANTYLTHIO)-3-PICOLINE], the Activity is 7.69%.

System in the next assay: not listed separately
Nature of the assay: Antioxidant activity assessed as superoxide radical scavenging activity at 300 ug/mL by NBT reduction assay. The class given is functional.
Details: not given
For the compound `Cc1cccnc1SC12CC3CC(CC(C3)C1)C2`, the Activity turned out to be 10.8%.

As for `c1ccc(-c2ccnc(SC34CC5CC(CC(C5)C3)C4)c2)cc1`, the Activity was determined as 32%.

Take `c1ccc(-c2ccc(SC34CC5CC(CC(C5)C3)C4)cn2)cc1`: the Activity came to 31.6%.

For the compound `c1ccc(-c2cccnc2SC23CC4CC(CC(C4)C2)C3)cc1`, the Activity turned out to be 26.7%.

As for `c1ccc(-c2ccncc2SC23CC4CC(CC(C4)C2)C3)cc1` [3-(1-ADAMANTYLTHIO)-4-PHENYLPYRIDINE], the Activity was 37.5%.

`c1ccc(-c2cc(SC34CC5CC(CC(C5)C3)C4)ccn2)cc1` [4-(1-ADAMANTYLTHIO)-2-PHENYLPYRIDINE]: the Activity was 32.1%.

Regarding `Cc1cncc(SC23CC4CC(CC(C4)C2)C3)c1` [5-(1-ADAMANTYLTHIO)-3-PICOLINE], the Activity was 36.9%.

As for `c1ccc(-c2cccc(SC34CC5CC(CC(C5)C3)C4)n2)cc1` [6-(1-ADAMANTYLTHIO)-2-PHENYLPYRIDINE], the Activity was found to be 25.9%.

As for `c1ccc(-c2ccc(SC34CC5CC(CC(C5)C3)C4)nc2)cc1` [6-(1-ADAMANTYLTHIO)-3-PHENYLPYRIDINE], the Activity stood at 18%.

`Cc1ccc(SC23CC4CC(CC(C4)C2)C3)nc1` [6-(1-ADAMANTYLTHIO)-3-PICOLINE]: the Activity amounted to 28.6%.

In another assay the test system is HepG2. Briefly: Cytotoxicity against Homo sapiens (human) HepG2 cells after 3 days by MTT assay. The format is functional, cell-based. To be noted: Homo sapiens, HepG2, 72 h; read-out: IC50. In general terms: Formazan colour is commonly taken as a measure of viable cells.
`Cc1cccnc1SC12CC3CC(CC(C3)C1)C2`: the half-inhibitory concentration (IC50) was found to be 30 µg/mL (≈ 116 µM).

For the compound `c1ccc(-c2ccnc(SC34CC5CC(CC(C5)C3)C4)c2)cc1`, the 50% inhibitory concentration (IC50) stood at 46.5 µg/mL (≈ 145 µM).

Turning to `c1ccc(-c2ccncc2SC23CC4CC(CC(C4)C2)C3)cc1` [3-(1-ADAMANTYLTHIO)-4-PHENYLPYRIDINE], the IC50 came to 21.5 µg/mL (≈ 66.9 µM).

On to `Cc1cncc(SC23CC4CC(CC(C4)C2)C3)c1` [5-(1-ADAMANTYLTHIO)-3-PICOLINE], for which the IC50 came out at 26.5 µg/mL (≈ 102 µM).

As to `c1ccc(-c2cccc(SC34CC5CC(CC(C5)C3)C4)n2)cc1` [6-(1-ADAMANTYLTHIO)-2-PHENYLPYRIDINE], the IC50 turned out to be 48.5 µg/mL (≈ 151 µM).

Consider `COc1cccc2c1C(=O)c1c(O)c3c(c(O)c1C2=O)C[C@@](O)(C(=O)CO)C[C@@H]3O[C@H]1C[C@H](N)[C@H](O)[C@H](C)O1` [DOXORUBICIN], for which the IC50 was found to be 0.23 µg/mL (≈ 0.423 µM).

With `COc1cc([C@@H]2c3cc4c(cc3[C@@H](O[C@@H]3O[C@@H]5CO[C@@H](C)O[C@H]5[C@H](O)[C@H]3O)[C@H]3COC(=O)[C@H]23)OCO4)cc(OC)c1O` [ETOPOSIDE], the IC50 is 12 µg/mL (≈ 20.4 µM).

The same assay, now with this note: hepg2.
In the case of `c1ccc(-c2cc(SC34CC5CC(CC(C5)C3)C4)ccn2)cc1` [4-(1-ADAMANTYLTHIO)-2-PHENYLPYRIDINE], the half-inhibitory concentration (IC50) entry was “Not Active”.

On to `c1ccc(-c2ccc(SC34CC5CC(CC(C5)C3)C4)nc2)cc1` [6-(1-ADAMANTYLTHIO)-3-PHENYLPYRIDINE], for which the half-maximal inhibitory concentration (IC50) entry is “Not Active”.

For `Cc1ccc(SC23CC4CC(CC(C4)C2)C3)nc1` [6-(1-ADAMANTYLTHIO)-3-PICOLINE], the concentration for half-maximal inhibition (IC50) result is “Not Active”.

System in a further assay: not listed separately
Nature of the assay: Cytotoxicity against Homo sapiens (human) HuCCa1 cells after 3 days by crystal violet staining. The format is functional, cell-based, HuCC-A1. Conditions: Homo sapiens, HuCC-A1, 72 h; read-out: IC50.
`c1ccc(-c2ccncc2SC23CC4CC(CC(C4)C2)C3)cc1` [3-(1-ADAMANTYLTHIO)-4-PHENYLPYRIDINE]: the IC50 is 29 µg/mL (≈ 90.2 µM).

For the compound `c1ccc(-c2cc(SC34CC5CC(CC(C5)C3)C4)ccn2)cc1` [4-(1-ADAMANTYLTHIO)-2-PHENYLPYRIDINE], the IC50 worked out at 49 µg/mL (≈ 152 µM).

As for `Cc1cncc(SC23CC4CC(CC(C4)C2)C3)c1` [5-(1-ADAMANTYLTHIO)-3-PICOLINE], the IC50 stood at 34 µg/mL (≈ 131 µM).

For the compound `COc1cccc2c1C(=O)c1c(O)c3c(c(O)c1C2=O)C[C@@](O)(C(=O)CO)C[C@@H]3O[C@H]1C[C@H](N)[C@H](O)[C@H](C)O1` [DOXORUBICIN], the IC50 came to 0.45 µg/mL (≈ 0.828 µM).

The assay is the same for the next values; noted with them: hucc-a1.
Turning to `Cc1cccnc1SC12CC3CC(CC(C3)C1)C2`, the IC50 entry is listed as “Not Active”.

Take `c1ccc(-c2ccnc(SC34CC5CC(CC(C5)C3)C4)c2)cc1`: the IC50 result was “Not Active”.

As for `c1ccc(-c2cccc(SC34CC5CC(CC(C5)C3)C4)n2)cc1` [6-(1-ADAMANTYLTHIO)-2-PHENYLPYRIDINE], the IC50 entry is “Not Active”.

For the compound `c1ccc(-c2ccc(SC34CC5CC(CC(C5)C3)C4)nc2)cc1` [6-(1-ADAMANTYLTHIO)-3-PHENYLPYRIDINE], the IC50 result was “Not Active”.

With `Cc1ccc(SC23CC4CC(CC(C4)C2)C3)nc1` [6-(1-ADAMANTYLTHIO)-3-PICOLINE], the IC50 result is “Not Active”.

Another assay has as its system A549. Briefly: Cytotoxicity against Homo sapiens (human) A549 cells after 3 days by MTT assay. To be noted: Homo sapiens, A549, 72 h; read-out: IC50. The class given is functional, cell-based.
As for `c1ccc(-c2ccncc2SC23CC4CC(CC(C4)C2)C3)cc1` [3-(1-ADAMANTYLTHIO)-4-PHENYLPYRIDINE], the IC50 was determined as 24 µg/mL (≈ 74.7 µM).

For the compound `c1ccc(-c2cc(SC34CC5CC(CC(C5)C3)C4)ccn2)cc1` [4-(1-ADAMANTYLTHIO)-2-PHENYLPYRIDINE], the half-maximal inhibitory concentration (IC50) worked out at 38 µg/mL (≈ 118 µM).

For the compound `Cc1cncc(SC23CC4CC(CC(C4)C2)C3)c1` [5-(1-ADAMANTYLTHIO)-3-PICOLINE], the IC50 came out at 29 µg/mL (≈ 112 µM).

For `c1ccc(-c2cccc(SC34CC5CC(CC(C5)C3)C4)n2)cc1` [6-(1-ADAMANTYLTHIO)-2-PHENYLPYRIDINE], the IC50 is 44 µg/mL (≈ 137 µM).

Regarding `c1ccc(-c2ccc(SC34CC5CC(CC(C5)C3)C4)nc2)cc1` [6-(1-ADAMANTYLTHIO)-3-PHENYLPYRIDINE], the half-inhibitory concentration (IC50) was determined as 44 µg/mL (≈ 137 µM).

`COc1cccc2c1C(=O)c1c(O)c3c(c(O)c1C2=O)C[C@@](O)(C(=O)CO)C[C@@H]3O[C@H]1C[C@H](N)[C@H](O)[C@H](C)O1` [DOXORUBICIN]: the IC50 worked out at 0.39 µg/mL (≈ 0.718 µM).

Staying with this assay, now noted: a549.
Turning to `Cc1cccnc1SC12CC3CC(CC(C3)C1)C2`, the IC50 result was “Not Active”.

For `c1ccc(-c2ccnc(SC34CC5CC(CC(C5)C3)C4)c2)cc1`, the IC50 entry is “Not Active”.

As for `Cc1ccc(SC23CC4CC(CC(C4)C2)C3)nc1` [6-(1-ADAMANTYLTHIO)-3-PICOLINE], the half-inhibitory concentration (IC50) result is on record as “Not Active”.
